Source: PubChem BioAssay (NCI)
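These data come from cells grown in 96-well plates and exposed to compound for 48 hours at five concentrations. Definition used: TGI = concentration required for complete inhibition of growth.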

Experiments:
Test in all cases: inhibition of tumour cell growth, NCI panel, 48 h
DLD-1 colon = test system: DLD-1 colon
A549 NSCLC = test system: A549 NSCLC
EKVX NSCLC = test system: EKVX NSCLC
UACC-257 melanoma = test system: UACC-257 melanoma
HOP-18 NSCLC = test system: HOP-18 NSCLC
SK-MEL-2 melanoma = test system: SK-MEL-2 melanoma
K-562 leukemia = test system: K-562 leukemia
NCI-H460 lung = test system: NCI-H460 lung
DMS 114 small cell lung = test system: DMS 114 small cell lung
UACC-62 melanoma = test system: UACC-62 melanoma
ACHN renal = test system: ACHN renal
COLO 205 colon = test system: COLO 205 colon
UO-31 renal = test system: UO-31 renal
LOX IMVI melanoma = test system: LOX IMVI melanoma
HCC-2998 colon = test system: HCC-2998 colon
NCI-H23 lung = test system: NCI-H23 lung
M14 melanoma = test system: M14 melanoma
A498 renal = test system: A498 renal
SNB-19 CNS = test system: SNB-19 CNS
RPMI-8226 leukemia = test system: RPMI-8226 leukemia
CCRF-CEM leukemia = test system: CCRF-CEM leukemia
OVCAR-4 ovarian = test system: OVCAR-4 ovarian
SK-MEL-28 melanoma = test system: SK-MEL-28 melanoma
HT29 colon = test system: HT29 colon
RXF 393 renal = test system: RXF 393 renal
SNB-75 CNS = test system: SNB-75 CNS
CAKI-1 renal = test system: CAKI-1 renal
NCI-H226 lung = test system: NCI-H226 lung
M19-MEL melanoma = test system: M19-MEL melanoma
SW-620 colon = test system: SW-620 colon
RXF-631 renal = test system: RXF-631 renal
OVCAR-8 ovarian = test system: OVCAR-8 ovarian
KM12 colon = test system: KM12 colon
U251 CNS = test system: U251 CNS
786-0 renal = test system: 786-0 renal
KM20L2 colon = test system: KM20L2 colon
HCT-116 colon = test system: HCT-116 colon
DMS 273 small cell lung = test system: DMS 273 small cell lung
LXFL 529 NSCLC = test system: LXFL 529 NSCLC
IGROV1 ovarian = test system: IGROV1 ovarian
NCI-H522 lung = test system: NCI-H522 lung
OVCAR-5 ovarian = test system: OVCAR-5 ovarian
SNB-78 CNS = test system: SNB-78 CNS
MALME-3M melanoma = test system: MALME-3M melanoma
SN12C renal = test system: SN12C renal
SF-268 CNS = test system: SF-268 CNS
TK-10 renal = test system: TK-10 renal
HCT-15 colon = test system: HCT-15 colon
HOP-92 NSCLC = test system: HOP-92 NSCLC
SK-OV-3 ovarian = test system: SK-OV-3 ovarian
XF 498 CNS = test system: XF 498 CNS
MOLT-4 leukemia = test system: MOLT-4 leukemia
HL-60(TB) leukemia = test system: HL-60(TB) leukemia
SF-539 CNS = test system: SF-539 CNS
OVCAR-3 ovarian = test system: OVCAR-3 ovarian
SK-MEL-5 melanoma = test system: SK-MEL-5 melanoma
HOP-62 NSCLC = test system: HOP-62 NSCLC

O=S1(=O)CS(=O)(=O)OCCCCCO1
TGI (DLD-1 colon): > 100 µM
TGI (A549 NSCLC): > 100 µM
TGI (EKVX NSCLC): > 100 µM
TGI (UACC-257 melanoma): > 100 µM
TGI (HOP-18 NSCLC): > 100 µM
TGI (SK-MEL-2 melanoma): > 100 µM
TGI (K-562 leukemia): > 100 µM
TGI (NCI-H460 lung): > 100 µM
TGI (DMS 114 small cell lung): > 100 µM
TGI (UACC-62 melanoma): > 100 µM
TGI (ACHN renal): > 100 µM
TGI (COLO 205 colon): > 100 µM
TGI (UO-31 renal): > 100 µM
TGI (LOX IMVI melanoma): > 100 µM
TGI (HCC-2998 colon): > 100 µM
TGI (NCI-H23 lung): > 100 µM
TGI (M14 melanoma): > 100 µM
TGI (A498 renal): > 100 µM
TGI (SNB-19 CNS): > 100 µM
TGI (RPMI-8226 leukemia): > 100 µM
TGI (CCRF-CEM leukemia): > 100 µM
TGI (OVCAR-4 ovarian): > 100 µM
TGI (SK-MEL-28 melanoma): > 100 µM
TGI (HT29 colon): > 100 µM
TGI (RXF 393 renal): > 100 µM
TGI (SNB-75 CNS): > 100 µM
TGI (CAKI-1 renal): > 100 µM
TGI (NCI-H226 lung): > 100 µM
TGI (M19-MEL melanoma): > 100 µM
TGI (SW-620 colon): > 100 µM
TGI (RXF-631 renal): > 100 µM
TGI (OVCAR-8 ovarian): > 100 µM
TGI (KM12 colon): > 100 µM
TGI (U251 CNS): > 100 µM
TGI (786-0 renal): > 100 µM
TGI (KM20L2 colon): > 100 µM
TGI (HCT-116 colon): > 100 µM
TGI (DMS 273 small cell lung): > 100 µM
TGI (LXFL 529 NSCLC): > 100 µM
TGI (IGROV1 ovarian): > 100 µM
TGI (NCI-H522 lung): > 100 µM
TGI (OVCAR-5 ovarian): > 100 µM
TGI (SNB-78 CNS): > 100 µM
TGI (MALME-3M melanoma): > 100 µM
TGI (SN12C renal): > 100 µM
TGI (SF-268 CNS): > 100 µM
TGI (TK-10 renal): > 100 µM
TGI (HCT-15 colon): > 100 µM
TGI (HOP-92 NSCLC): > 100 µM
TGI (SK-OV-3 ovarian): > 100 µM

Cc1ccc(/C=C2\CCCC(C(NO)c3ccc(C)cc3)C2=NO)cc1 (stereo not drawn)
TGI (DLD-1 colon): > 100 µM
TGI (A549 NSCLC): > 100 µM
TGI (EKVX NSCLC): > 100 µM
TGI (UACC-257 melanoma): > 100 µM
TGI (HOP-18 NSCLC): > 100 µM
TGI (SK-MEL-2 melanoma): > 100 µM
TGI (K-562 leukemia): > 100 µM
TGI (NCI-H460 lung): 62.6 µM
TGI (DMS 114 small cell lung): > 100 µM
TGI (UACC-62 melanoma): > 100 µM
TGI (ACHN renal): > 100 µM
TGI (COLO 205 colon): 38.5 µM
TGI (UO-31 renal): > 100 µM
TGI (XF 498 CNS): > 100 µM
TGI (HCC-2998 colon): 62 µM
TGI (NCI-H23 lung): 73.2 µM
TGI (M14 melanoma): 85.4 µM
TGI (A498 renal): > 100 µM
TGI (SNB-19 CNS): > 100 µM
TGI (RPMI-8226 leukemia): 48.8 µM
TGI (CCRF-CEM leukemia): 49.8 µM
TGI (OVCAR-4 ovarian): 45.4 µM
TGI (MOLT-4 leukemia): 42.6 µM
TGI (SK-MEL-28 melanoma): 67.7 µM
TGI (HT29 colon): 37.9 µM
TGI (RXF 393 renal): 71.9 µM
TGI (SNB-75 CNS): 98.2 µM
TGI (CAKI-1 renal): > 100 µM
TGI (HL-60(TB) leukemia): 40.1 µM
TGI (M19-MEL melanoma): > 100 µM
TGI (SW-620 colon): > 100 µM
TGI (RXF-631 renal): 93.5 µM
TGI (OVCAR-8 ovarian): > 100 µM
TGI (KM12 colon): 45.1 µM
TGI (U251 CNS): > 100 µM
TGI (786-0 renal): > 100 µM
TGI (KM20L2 colon): 42.5 µM
TGI (HCT-116 colon): > 100 µM
TGI (DMS 273 small cell lung): > 100 µM
TGI (SF-539 CNS): > 100 µM
TGI (OVCAR-3 ovarian): 43.7 µM
TGI (LXFL 529 NSCLC): > 100 µM
TGI (IGROV1 ovarian): > 100 µM
TGI (NCI-H522 lung): 76.1 µM
TGI (SK-MEL-5 melanoma): 50.2 µM
TGI (SNB-78 CNS): > 100 µM
TGI (MALME-3M melanoma): > 100 µM
TGI (SN12C renal): 38.8 µM
TGI (SF-268 CNS): 66.6 µM
TGI (TK-10 renal): > 100 µM
TGI (HOP-62 NSCLC): > 100 µM
TGI (HCT-15 colon): > 100 µM
TGI (SK-OV-3 ovarian): > 100 µM
